The values that follow come from patent US11608341B2, “Substituted tetrahydropyrazolo[3,4-d]pyrimidines and tetrahydropyrazolo[4,3-d]pyrimidines as C5A receptor modulators” (Idorsia Pharmaceuticals Ltd., priority 2018, dated 2023).

SMILES strings stand for the structures.

This assay deals with T1, C5AR1 (Homo sapiens, UniProt P21730).
T1 construct: host or cells: CHO-K1
T1 sequence (P21730 1-350): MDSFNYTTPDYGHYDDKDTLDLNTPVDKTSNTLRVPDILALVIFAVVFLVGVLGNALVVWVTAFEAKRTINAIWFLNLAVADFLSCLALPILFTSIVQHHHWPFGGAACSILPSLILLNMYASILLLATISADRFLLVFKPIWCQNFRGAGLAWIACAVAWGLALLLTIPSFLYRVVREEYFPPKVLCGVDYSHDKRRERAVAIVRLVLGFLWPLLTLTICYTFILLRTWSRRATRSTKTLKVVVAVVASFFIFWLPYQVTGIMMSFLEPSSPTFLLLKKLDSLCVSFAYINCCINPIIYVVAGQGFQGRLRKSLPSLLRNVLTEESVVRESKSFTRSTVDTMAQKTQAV
The assay is described as follows: In vitro assay: antagonism of C5a-induced beta-arrestin recruitment (PathHunter) in CHO-K1 C5AR1 beta-arrestin cell line. In kind it is cell-based. As to conditions: antagonistic activity, 1-10 nM C5a agonist, geometric mean where several measurements, read-out: C5aR IC50. The gist of the method: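 Antagonist or DMSO added first, then C5a (1-10 nM, added at 6-fold end concentration), 1.5 h at 37 °C. PathHunter detection reagent was added for 45 min at RT before plate reading. IC50s come from antagonist serial dilutions in nmol/l and are geometric means of several measurements.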

What is called IC50 is the point on the concentration scale where inhibition reaches its midpoint.

Take `Cn1cc2c(n1)N(Cc1ccccc1C(F)(F)F)C(=O)N(C1CCN(c3c(F)cccc3C3CC3)CC1)C2` [Example 303]: the IC50 was 10 nM.
For the compound `Cn1cc2c(n1)CN(C1CCN(c3c(F)cccc3C3CC3)CC1)C(=O)N2Cc1ccccc1C(F)(F)F` [Example 304], the IC50 came to 35 nM.
`Cn1cc2c(n1)N(Cc1ccccc1C1CC1)C(=O)N(C1CCN(c3c(F)cccc3C3CC3)CC1)C2` [Example 307]: the concentration for half-maximal inhibition (IC50) was 30 nM.
The value for `Cn1cc2c(n1)N(Cc1ccccc1C1CC1)C(=O)N(C1CCN(c3c(F)cccc3C(F)F)CC1)C2` [Example 308] was 22 nM; that for `Cc1cccc(F)c1N1CCC(N2C(=O)N(Cc3ccccc3C(F)(F)F)c3nn(C4CCCCO4)cc3C2C)CC1` (stereo not drawn) [Example 313] was 13 nM.
Then `CC1c2cn(C3CCCCO3)nc2N(Cc2ccccc2C(F)(F)F)C(=O)N1C1CCN(c2c(F)cccc2C(F)F)CC1` (stereo not drawn) [Example 341], with 31 nM; and `CC1c2cn(C3CCCCO3)nc2N(Cc2ccccc2C(F)(F)F)C(=O)N1C1CCN(c2c(F)cccc2Cl)CC1` (stereo not drawn) [Example 342], with 24 nM.
Consider `COc1nccc(C(F)F)c1N1CCC(N2C(=O)N(Cc3ccccc3C(F)(F)F)c3nn(C4CCCCO4)cc3C2C)CC1` (stereo not drawn) [Example 343], for which the IC50 stood at 57 nM.
Then `CC1c2cn(C3CCCCO3)nc2N(Cc2ccccc2C2CC2)C(=O)N1C1CCN(c2c(F)cccc2Cl)CC1` (stereo not drawn) [Example 365], with 45 nM.
